Data published in patent publication US20240050428A1 (Cullgen (Shanghai), Inc., priority 2020, published 2024).
pIC50: −log10 of the molar value. Like-named read-outs stand apart in the source and are kept apart here.

How the values were obtained:
[1] = test system: MV4;11 cells; assay: Cell viability assay (CellTiter-Glo) in MV4;11 cells, alone or with gilteritinib; assay type: cell-based; conditions: Homo sapiens, MV4;11 cells, CellTiter-Glo, read-out: MV4
[2] = test system: MOLM-13 cells; assay: Cell viability assay (CellTiter-Glo) in MOLM-13 cells, alone or with gilteritinib; assay type: cell-based; conditions: Homo sapiens, MOLM-13 cells, CellTiter-Glo
[3] = MV4-11, 72 h, compound alone (without gilteritinib), three days, 11 IC50
[4] = MV4-11, 72 h, compound with gilteritinib 10 nM, three days, 11 IC50 gilteritinib
[5] = MOLM-13, 72 h, compound alone (without gilteritinib), three days, read-out: MOLM-13 IC50
[6] = MOLM-13, 72 h, compound with gilteritinib 20 nM, three days, read-out: MOLM-13 IC50 gilteritinib
[7] = MV4-11, 72 h, with gilteritinib 10 nM, three days, 11 IC50 gilteritinib
[8] = MOLM-13, 72 h, with gilteritinib 20 nM, three days, read-out: MOLM-13 IC50 gilteritinib
[9] = 72 h, compound alone (without gilteritinib), three days, 11 IC50
[10] = 72 h, with gilteritinib 10 nM, three days, 11 IC50 gilteritinib
[11] = 72 h, compound alone (without gilteritinib), three days, read-out: MOLM-13 IC50
[12] = 72 h, with gilteritinib 20 nM, three days, read-out: MOLM-13 IC50 gilteritinib

| pIC50 [1, 3] | pIC50 [1, 4] | pIC50 [2, 5] | pIC50 [2, 6] | pIC50 [1, 7] | pIC50 [2, 8] | Structure (SMILES) | also measured |
| --- | --- | --- | --- | --- | --- | --- | --- |
| 6.00 to 7.00 | 7.00 to 8.00 | 6.00 to 7.00 | 7.00 to 8.00 |  |  | COc1ccc(-c2cnn([C@H]3C[C@H](CCCNc4ccc5c(c4)C(=O)N(C4CCC(=O)NC4=O)C5=O)C3)c2)nc1 (stereo partly drawn) [GS-462, 2-(2,6-dioxopiperidin-3-yl)-5-((3-(trans-3-(4-(5-methoxypyridin-2-yl)-1H-pyrazol-1-yl)cyclobutyl)propyl)amino)isoindoline-1,3-dione] |  |
| < 6.00 |  | < 6.00 |  | < 6.00 | < 6.00 | O=C1CCC(N2Cc3c(Nc4ccnc(NC5CCC(N6CCC(n7cc(-c8cnc9ccccc9n8)cn7)CC6)C5)n4)cccc3C2=O)C(=O)N1 (stereo not drawn) [GS-092, 3-(1-Oxo-4-((2-((3-(4-(4-(quinoxalin-2-yl)-1H-pyrazol-1-yl)piperidin-1-yl)cyclopentyl)amino)pyrimidin-4-yl)amino)isoindolin-2-yl)piperidine-2,6-dione] |  |
|  |  |  |  |  |  | O=C1CCC(N2C(=O)c3ccc(C4CCN(CCCn5cc(-c6cnc7ccccc7n6)cn5)CC4)cc3C2=O)C(=O)N1 (stereo not drawn) [GS-358, 2-(2,6-Dioxopiperidin-3-yl)-5-(1-(3-(4-(quinoxalin-2-yl)-1H-pyrazol-1-yl)propyl)piperidin-4-yl)isoindoline-1,3-dione] | pIC50 [1, 9]: < 6.00; pIC50 [1, 10]: < 6.00; pIC50 [2, 11]: < 6.00; pIC50 [2, 12]: < 6.00 |
| 6.00 to 7.00 |  | < 6.00 |  | 7.00 to 8.00 | 7.00 to 8.00 | O=C1CCC(N2C(=O)c3ccc(NCCC[C@H]4C[C@H](n5cc(-c6ccnc(N7CCOCC7)n6)cn5)C4)cc3C2=O)C(=O)N1 (stereo partly drawn) [GS-239, 2-(2,6-Dioxopiperidin-3-yl)-5-((3-(trans-3-(4-(2-morpholinopyrimidin-4-yl)-1H-pyrazol-1-yl)cyclobutyl)propyl)amino)isoindoline-1,3-dione] |  |
|  |  |  |  |  |  | O=C1CCC(N2C(=O)c3ccc(NCCNc4cccc(N5CCC(c6ccccc6)CC5)c4)cc3C2=O)C(=O)N1 (stereo not drawn) [GS-366, 2-(2,6-Dioxopiperidin-3-yl)-5-((2-((3-(4-phenylpiperidin-1-yl)phenyl)amino)ethyl)amino)isoindoline-1,3-dione] | pIC50 [1, 9]: 7.00 to 8.00; pIC50 [1, 10]: > 8.00; pIC50 [2, 11]: 7.00 to 8.00; pIC50 [2, 12]: > 8.00 |
| 7.00 to 8.00 |  | 7.00 to 8.00 |  | > 8.00 | > 8.00 | O=C1CCC(N2Cc3cc(CNC(=O)C45CC(C(=O)N6CCC(n7cc(-c8cnc9ccccc9n8)cn7)CC6)(C4)C5)ccc3C2=O)C(=O)N1 (stereo not drawn) [GS-120, N-((2-(2,6-dioxopiperidin-3-yl)-1-oxoisoindolin-5-yl)methyl)-3-(4-(4-(quinoxalin-2-yl)-1H-pyrazol-1-yl)piperidine-1-carbonyl)bicyclo[1.1.1]pentane-1-carboxamide] |  |
| < 6.00 |  | < 6.00 |  | < 6.00 | < 6.00 | O=C1CCC(N2C(=O)c3ccc(C#CCCCCn4cc(-c5cnc6ccccc6n5)cn4)cc3C2=O)C(=O)N1 (stereo not drawn) [GS-369, 2-(2,6-Dioxopiperidin-3-yl)-5-(6-(4-(quinoxalin-2-yl)-1H-pyrazol-1-yl)hex-1-yn-1-yl)isoindoline-1,3-dione] |  |
| 7.00 to 8.00 | > 8.00 | 6.00 to 7.00 | > 8.00 |  |  | Cc1cccc(-c2cnn(CCCCCCNc3ccc4c(c3)C(=O)N(C3CCC(=O)NC3=O)C4=O)c2)c1 (stereo not drawn) [GS-497, 2-(2,6-dioxopiperidin-3-yl)-5-((6-(4-(m-tolyl)-1H-pyrazol-1-yl)hexyl)amino)isoindoline-1,3-dione] |  |
| < 6.00 |  | 6.00 to 7.00 |  | < 6.00 | 7.00 to 8.00 | O=C1CCC(N2C(=O)c3ccc(NCCCN4CCC(n5cc(-c6cnc7ccccc7n6)cn5)CC4)cc3C2=O)C(=O)N1 (stereo not drawn) [GS-343] |  |
|  |  |  |  |  |  | O=C1CCC(N2C(=O)c3ccc(NCCCCCC(=O)N4CCCCC4)cc3C2=O)C(=O)N1 (stereo not drawn) [GS-001, 2-(2,6-Dioxopiperidin-3-yl)-5-((6-oxo-6-(piperidin-1-yl)hexyl)amino)isoindoline-1,3-dione] | pIC50 ([1]; MV4-11, 72 h, with 10 nM gilteritinib, 3 days, 11 IC50 gilteritinib): < 5.00; pIC50 ([1]; MV4-11, 72 h, without gilteritinib, 3 days, 11 IC50): 5.32; pIC50 ([2]; MOLM-13, 72 h, with 20 nM gilteritinib, 3 days, read-out: MOLM-13 IC50 gilteritinib): 7.57; pIC50 ([2]; MOLM-13, 72 h, without gilteritinib, 3 days, read-out: MOLM-13 IC50): 6.52 |
| 6.00 to 7.00 |  | 6.00 to 7.00 |  | 7.00 to 8.00 | > 8.00 | O=C1CCC(N2C(=O)c3ccc(NCCCC(F)(F)C(=O)N4CCC(n5cc(-c6cnc7ccccc7n6)cn5)CC4)cc3C2=O)C(=O)N1 (stereo not drawn) [GS-145, 5-((4,4-Difluoro-5-oxo-5-(4-(4-(quinoxalin-2-yl)-1H-pyrazol-1-yl)piperidin-1-yl)pentyl)amino)-2-(2,6-dioxopiperidin-3-yl)isoindoline-1,3-dione] |  |
| < 6.00 |  | < 6.00 |  | < 6.00 | < 6.00 | O=C1CCC(N2Cc3c(NC4CCCC(CCCn5cc(-c6cnc7ccccc7n6)cn5)C4)cccc3C2=O)C(=O)N1 (stereo not drawn) [GS-157] |  |
| 6.00 to 7.00 | 7.00 to 8.00 | 6.00 to 7.00 | > 8.00 |  |  | Cc1nn(CCCCCCNc2ccc3c(c2)C(=O)N(C2CCC(=O)NC2=O)C3=O)c(C)c1-c1ccc2ccccc2n1 (stereo not drawn) [GS-549, 5-((6-(3,5-Dimethyl-4-(quinolin-2-yl)-1H-pyrazol-1-yl)hexyl)amino)-2-(2,6-dioxopiperidin-3-yl)isoindoline-1,3-dione] |  |
| 7.00 to 8.00 |  | 7.00 to 8.00 |  | > 8.00 | > 8.00 | O=C1CCC(N2C(=O)c3ccc(NC[C@H]4C[C@H](n5cc(-c6cc(Cl)ccn6)c(C6CC6)n5)C4)cc3C2=O)C(=O)N1 (stereo partly drawn) [GS-264, 5-(((trans-3-(4-(4-Chloropyridin-2-yl)-3-cyclopropyl-1H-pyrazol-1-yl)cyclobutyl)methyl)amino)-2-(2,6-dioxopiperidin-3-yl)isoindoline-1,3-dione] |  |
| < 6.00 | < 6.00 | < 6.00 | 6.00 to 7.00 |  |  | O=C1CCC(N2C(=O)c3ccc(NC[C@H]4C[C@H](n5cc(N6CCOCC6)c(C6CC6)n5)C4)cc3C2=O)C(=O)N1 (stereo partly drawn) [GS-438, 5-(((trans-3-(3-cyclopropyl-4-morpholino-1H-pyrazol-1-yl)cyclobutyl)methyl)amino)-2-(2,6-dioxopiperidin-3-yl)isoindoline-1,3-dione] |  |
| < 6.00 |  | < 6.00 |  | 7.00 to 8.00 | 6.00 to 7.00 | O=C1CCC(N2C(=O)c3ccc(NCCCn4cc(-c5cnc6ccccc6n5)cn4)cc3C2=O)C(=O)N1 (stereo not drawn) [GS-355, 2-(2,6-Dioxopiperidin-3-yl)-5-((3-(4-(quinoxalin-2-yl)-1H-pyrazol-1-yl)propyl)amino)isoindoline-1,3-dione] |  |
| 6.00 to 7.00 |  | 6.00 to 7.00 |  | 7.00 to 8.00 | 7.00 to 8.00 | CNc1cccc(-c2cn([C@H]3C[C@H](CNc4ccc5c(c4)C(=O)N(C4CCC(=O)NC4=O)C5=O)C3)nc2C2CC2)n1 (stereo partly drawn) [GS-263, 5-(((trans-3-(3-Cyclopropyl-4-(6-(methylamino)pyridin-2-yl)-1H-pyrazol-1-yl)cyclobutyl)methyl)amino)-2-(2,6-dioxopiperidin-3-yl)isoindoline-1,3-dione] |  |
| 6.00 to 7.00 |  | < 6.00 |  | 7.00 to 8.00 | 7.00 to 8.00 | O=C1CCC(N2Cc3cc(CCCCCCCn4cc(-c5cnc6ccccc6n5)cn4)ccc3C2=O)C(=O)N1 (stereo not drawn) [GS-375, 3-(1-Oxo-5-(7-(4-(quinoxalin-2-yl)-1H-pyrazol-1-yl)heptyl)isoindolin-2-yl)piperidine-2,6-dione] |  |
| > 8.00 | > 8.00 | 7.00 to 8.00 | > 8.00 |  |  | O=C1CCC(N2C(=O)c3ccc(NCCCCCCn4cc(-c5cnc6ccc(C7CCOCC7)cc6n5)c(C5CC5)n4)cc3C2=O)C(=O)N1 (stereo not drawn) [GS-571, 5-((6-(3-Cyclopropyl-4-(7-(tetrahydro-2H-pyran-4-yl)quinoxalin-2-yl)-1H-pyrazol-1-yl)hexyl)amino)-2-(2,6-dioxopiperidin-3-yl)isoindoline-1,3-dione] |  |
| 7.00 to 8.00 | 7.00 to 8.00 | 6.00 to 7.00 | 7.00 to 8.00 |  |  | CC(C)c1cccc(-c2cnn([C@H]3C[C@H](CCCNc4ccc5c(c4)C(=O)N(C4CCC(=O)NC4=O)C5=O)C3)c2)n1 (stereo partly drawn) [GS-453, 2-(2,6-dioxopiperidin-3-yl)-5-((3-(trans-3-(4-(6-isopropylpyridin-2-yl)-1H-pyrazol-1-yl)cyclobutyl)propyl)amino)isoindoline-1,3-dione] |  |
| 7.00 to 8.00 | 7.00 to 8.00 | 7.00 to 8.00 | > 8.00 |  |  | O=C1CCC(N2C(=O)c3ccc(NCCCCCCn4cc(-c5cnc6ccc(C7CC7)cc6n5)cn4)cc3C2=O)C(=O)N1 (stereo not drawn) [GS-562, 5-((6-(4-(7-Cyclopropylquinoxalin-2-yl)-1H-pyrazol-1-yl)hexyl)amino)-2-(2,6-dioxopiperidin-3-yl)isoindoline-1,3-dione] |  |
